Test results as given in patent publication US20210353557A1, “ORAL COMPOSITION CONTAINING REDUCED COENZYME Q10, METHOD FOR PRODUCING SAME, METHOD FOR PREVENTING DISCOLORATION AND DISCOLORATION PREVENTING AGENT” (SUNTORY HOLDINGS LIMITED, priority 2018, published 2021).

Test: Color difference (ΔE) after storage under accelerated condition, Reference Example 1
Type: physicochemical
Conditions: 40° C., 75% RH; for ΔE After 7 days: 7-day (168-hour) storage; for ΔE After 7 days / ΔE 0-Hour storage: n=1; for change in ΔE value after storage (in words): 7 days; for ΔE 0-Hour storage: start of storage
Description: The L value, a value, and b value of a sample were measured using a color difference meter (trade name: Spectrophotometer SE7700, available from Nippon Denshoku Industries Co., Ltd.). • The number n of samples was 3 for each standard unless otherwise mentioned. The average values of the three samples were defined as the L value, a value, and b value of the standard. • Measurement was performed five times for each sample, and the average value was output as the result. The sample was stirred for each measurement operation so that the whole sample was subjected to the measurement. • In the measurement, about 1 g of a sample was weighed out from a Petri dish for use. The sample in the Petri dish was mixed and homogenized before weighing out.
The ΔE value was calculated by the following formula.
ΔE={(ΔL)^2+(Δa)^2+(Δb)^2}^1/2
For each standard after storage for a predetermined period of time, the ΔE value was calculated based on the 0-time value (value after 0-hour storage) of the standard. For a control after storage for a predetermined period of time, the ΔE value was also calculated based on the 0-time value (value after 0-hour storage) of the control.
About 2 g each of the reduced CoQ10, sesamin compound, theanine, and dextrin were put into separate Petri dishes (n=1) and left to stand at a temperature of 40° C. and a humidity of 75% RH (accelerated condition). The L value, a value, and b value were measured at the start of storage (0-hour storage) and after 7-day (168-hour) storage, and then the ΔE value was calculated. For each sample, the change in appearance after seven days from the start of storage was visually observed.

Compound | ΔE After 7 days | change in ΔE value after storage (in words) | appearance by visual observation after seven days | ΔE 0-Hour storage
COc1c(O)c(C)c(C/C=C(\C)CC/C=C(\C)CC/C=C(\C)CC/C=C(\C)CC/C=C(\C)CC/C=C(\C)CC/C=C(\C)CC/C=C(\C)CC/C=C(\C)CCC=C(C)C)c(O)c1OC [Standard S-1, Reduced CoQ10] | 66.4 | increase in ΔE value over time | orange | 0.0
CCNC(=O)CC[C@H](N)C(=O)O [Standard S-3, Theanine] | 0.1 | little change in ΔE value after storage | white to pale yellow | 0.0
